Experimental findings from PMC8179002, “Inhibitors of thiol-mediated uptake” (Chemical Science, 2020) are described below.

Each structure is given as a SMILES string. In brackets after ≈: the same amount, converted by molar mass. Read-outs that look alike come from different tables or passages of the source. Bridge positions count the residues as written; N and C are the ends. Peptide text beside a SMILES is read from it.

The test system of data set [1] is cellular uptake of 1 in HeLa Kyoto cells. Nature of the data set: cells. The format is cell-based. The conditions noted are these: for IC50: read-out: IC50, inhibition of cellular uptake of 1; for minimal effective concentration: read-out: MIC, inhibition of cellular uptake of 1; for MIC (concentration that causes ∼15% reduction of reporter uptake), against reporter 1: pre-incubation time not given (Fig. 2: 1 h pre-incubation, 30 min with reporter; some 15 min). An outline of the steps: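 HeLa Kyoto cells were pre-incubated with inhibitors at varying concentrations and times, washed, then given reporter 1 at 10 μM final for 30 min at 37°C; alternatively, inhibitors were kept during reporter exposure. Hoechst/PI staining and 10x high-content imaging gave mean intracellular fluorescence per cell and viability from PI-negative nuclei.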

Data set [2] has as its system cellular uptake of 2 in HeLa Kyoto cells. Nature of the data set: cells. Format: cell-based.
Data set [3] has as its system A549 human lung alveolar basal epithelium cells overexpressing ACE2 and TMPRSS2. The conditions noted are these: Fig. S44.
The conditions of data set [4]: trans to cis isomer 22; Fig. S46.
[5] abbreviates: HeLa Kyoto, 0.5 h, HeLa, tpre 0.5 h, then tco 0.5 h co-incubation of inhibitor and 1 (10 µM).
The mark [6] stands for this setting: HeLa Kyoto, 0.5 h, HeLa, tpre 0.5 h with inhibitor, removal, tinc 0.5 h with 1 (10 µM).
Setting [7] is: HeLa Kyoto, 0.5 h, HeLa, tpre 5.5 h with FBS, then tco 0.5 h co-incubation of inhibitor and 1 (10 µM).
The mark [8] stands for this setting: HeLa Kyoto, 0.5 h, HeLa, tpre 23.5 h with FBS, then tco 0.5 h co-incubation of inhibitor and 1 (10 µM).
[9] abbreviates: HeLa Kyoto, 1 h, HeLa, tpre 1 h with inhibitor, removal, tinc 0.5 h with 1 (10 µM).
Setting [10] is: HeLa Kyoto, 2 h, HeLa, tpre 2 h with inhibitor, removal, tinc 0.5 h with 1 (10 µM).
The mark [11] stands for this setting: HeLa Kyoto, 4 h, HeLa, tpre 4 h with inhibitor, removal, tinc 0.5 h with 1 (10 µM).
[12] abbreviates: HeLa Kyoto, HeLa, tpre 1 h with inhibitor, removal, tinc 0.5 h with 1 (10 µM).
The mark [13] stands for this setting: HeLa Kyoto, HeLa, tpre 5.5 h with FBS, then tco 0.5 h co-incubation of inhibitor and 1 (10 µM).
Where [14] appears, read: HeLa Kyoto, HeLa, tpre 23.5 h with FBS, then tco 0.5 h co-incubation of inhibitor and 1 (10 µM).
Setting [15] is: HeLa, tpre 0.5 h, then tco 0.5 h co-incubation of inhibitor and 2 (10 µM).
Where [16] appears, read: HeLa, tpre 1 h with inhibitor, removal, tinc 0.5 h with 2 (10 µM).
The mark [17] stands for this setting: HeLa, tpre 4 h with inhibitor, removal, tinc 0.5 h with 2 (10 µM).
[18] abbreviates: HeLa, tpre 1 h with inhibitor, removal, tinc 0.5 h with 1 (10 µM).
[19] abbreviates: HeLa, tpre 2 h with inhibitor, removal, tinc 0.5 h with 1 (10 µM).

The IC50 is the concentration that gives 50% inhibition. With `CCN1C(=O)C2SSSSC1C(=O)N2CC(=O)O` (centres unmarked) [compound 3], the IC50 amounted to 2.7 ± 0.1 µM in data set [1] (setting [5]); 1.7 ± 0.2 µM in data set [1] (setting [6]); 1.3 ± 0.2 µM in data set [1] (setting [12]); 2.7 ± 0.6 µM in data set [1] (HeLa Kyoto, HeLa, tpre 2 h with inhibitor, removal, tinc 0.5 h with 1 (10 µM)); 8.2 ± 3.2 µM in data set [1] (HeLa Kyoto, HeLa, tpre 4 h with inhibitor, removal, tinc 0.5 h with 1 (10 µM)); 9.6 ± 1.2 µM in data set [1] (setting [13]). Also, the IC50 in data set [1] (setting [14]) is above 50 µM; in data set [2] (HeLa Kyoto, 0.5 h, HeLa, tpre 0.5 h, then tco 0.5 h co-incubation of inhibitor and 2 (10 µM), read-out: IC50, inhibition of cellular uptake of 2), above 20 µM; in data set [2] (HeLa Kyoto, HeLa, tpre 1 h with inhibitor, removal, tinc 0.5 h with 2 (10 µM), read-out: IC50, inhibition of cellular uptake of 2) it was above 20 µM; in data set [2] (HeLa Kyoto, HeLa, tpre 6 h with FBS, removal, tinc 0.5 h with 2 (10 µM), read-out: IC50, inhibition of cellular uptake of 2) it was above 100 µM. Further, the minimal effective concentration in data set [1] (setting [5]) is below 0.5 µM; in data set [1] (setting [6]), below 0.1 µM; in data set [1] (setting [7]), below 0.5 µM; in data set [1] (setting [8]), 30 µM; in data set [1] (setting [9]), below 0.1 µM; in data set [1] (setting [10]), below 0.1 µM. For the same compound, the minimal effective concentration in data set [1] (setting [11]) is below 0.1 µM. Further, in data set [1] (HeLa), the “MIC (concentration that causes ∼15% reduction of reporter uptake), against reporter 1” value is below 0.1 µM. The “MIC, inhibition of cellular uptake of 2” value in data set [2] (setting [15]) was 17 µM; in data set [2] (setting [16]), above 20 µM; in data set [2] (HeLa, tpre 6 h with FBS, removal, tinc 0.5 h with 2 (10 µM)), 40 µM. In addition, in data set [3], the “Concentration at which toxicity was detected” value came out at 50 µM.

As to `O=S1(=O)C[C@H](O)[C@H](O)CS1` [compound 16], the results for the minimal effective concentration in data set [1] (setting [7]), in data set [1] (setting [8]) and in data set [1] (setting [9]) were 10 µM, 150 µM and 200 µM, respectively. In addition, the IC50 was above 1000 µM in data set [1] (setting [12]); 150 ± 30 µM in data set [1] (setting [13]); 860 ± 60 µM in data set [1] (setting [14]); 183 ± 18 µM in data set [2] (HeLa Kyoto, read-out: IC50, inhibition of cellular uptake of 2, HeLa, tpre 4 h with inhibitor, removal, tinc 0.5 h with 2 (10 µM)). Moreover, the “MIC against reporter 2” value in data set [2] (HeLa, longer pre-incubation (Fig. 2: 4 h pre-incubation)) was around 20 µM (≈ 3.68 µg/mL). The “MIC, inhibition of cellular uptake of 2” value in data set [2] (setting [17]) came out at 20 µM. The “Concentration at which toxicity was detected” value in data set [3] was found to be 500 µM.

For `[O-][S+]1CC(O)C(O)CS1` (centres unmarked) [compound 17], the IC50 in data set [1] (setting [5]) is above 500 µM; in data set [1] (setting [13]), above 1000 µM; in data set [1] (setting [14]) it was above 500 µM; in data set [1] (setting [18]), above 500 µM; in data set [1] (setting [19]), above 500 µM; in data set [1] (HeLa, tpre 4 h with inhibitor, removal, tinc 0.5 h with 1 (10 µM)), above 500 µM. Besides, the minimal effective concentration in data set [1] (setting [5]) worked out at 100 µM; in data set [1] (setting [7]), 250 µM; in data set [1] (setting [8]), 150 µM; in data set [1] (setting [10]), 300 µM; in data set [1] (setting [11]), 250 µM; in data set [1] (setting [18]), 250 µM. The Isomerization entry in data set [4] is listed as “isomerized with time”.

On to `N[C@H]1CSSC[C@@H](C(=O)N[C@@H](CCC(=O)O)C(=O)O)NC(=O)CNC1=O` [compound 19] (H-CGCE-OH; disulfide 1-3), for which the minimal effective concentration in data set [1] (1 h) and in data set [1] (2 h) was 400 µM each time. The “MIC (concentration that causes ∼15% reduction of reporter uptake), against reporter 1” value in data set [1] (HeLa) is listed as “≈ 300 μM”. For the same compound, the IC50 in data set [1] (HeLa, tpre 0.5 h with inhibitor, removal, tinc 0.5 h with 1 (10 µM)) was above 2000 µM; in data set [1] (setting [18]), above 2000 µM; in data set [1] (setting [19]), above 2000 µM; in data set [2] (HeLa, tpre 0.5 h, then tco 0.5 h co-incubation of inhibitor and 2 (10 µM), read-out: IC50, inhibition of cellular uptake of 2), 46 ± 5 µM; in data set [2] (HeLa, tpre 1 h with inhibitor, removal, tinc 0.5 h with 2 (10 µM), read-out: IC50, inhibition of cellular uptake of 2) it was above 1000 µM; in data set [2] (HeLa, tpre 1.5 h, then tco 0.5 h co-incubation of inhibitor and 2 (10 µM), read-out: IC50, inhibition of cellular uptake of 2) it was 58 ± 10 µM. The IC50 is above 1000 µM in data set [2] (HeLa, tpre 2 h with inhibitor, removal, tinc 0.5 h with 2 (10 µM), read-out: IC50, inhibition of cellular uptake of 2) and above 1000 µM in data set [2] (HeLa, tpre 4 h with inhibitor, removal, tinc 0.5 h with 2 (10 µM), read-out: IC50, inhibition of cellular uptake of 2). For the same compound, the “MIC, inhibition of cellular uptake of 2” value in data set [2] (setting [15]) is 5 µM; in data set [2] (setting [16]) it was above 1000 µM; in data set [2] (HeLa, tpre 1.5 h, then tco 0.5 h co-incubation of inhibitor and 2 (10 µM)), 7 µM; in data set [2] (HeLa, tpre 2 h with inhibitor, removal, tinc 0.5 h with 2 (10 µM)), above 1000 µM; in data set [2] (setting [17]), 900 µM. In addition, the “MIC against reporter 2” value in data set [2] (HeLa, upon co-incubation) was “≈ 5 μM”.
